Earlier results on one compound are cited in patent US20240130937A1, “ORAL CARE COMPOSITION” (LACER, S.A., priority 2019, published 2024).

For this series the following is noted: at 25° C.

Turning to `[Cl-].[Cl-].[Zn+2]` [zinc chloride], the solubility in water was 4320 mg/mL.
